Laboratory results taken from patent publication US7829114B2, “Capsules containing aqueous fill compositions stabilized with derivatized cyclodextrin” (CyDex Pharmaceuticals, Inc., priority 2002, dated 2010).
Like-named read-outs stand apart in the source and are kept apart here.

Assays:
[1] = Shell stability on exposure to aqueous fill composition (half-shell integrity test, H.S.I.T.); format: physicochemical; conditions: for content in fill composition for an HSIT rating of at least 3: PVP and water fill, hydrophilic fill-grade BANNER SGC
Text: Agitation continued until all the SAE-CD dissolved.

[2] = as above; conditions: for content in fill composition for an HSIT rating of at least 3: PVP and water fill, lipophilic fill-grade BANNER SGC
Description: A study was conducted to determine whether or not complexation of a drug to the SAE-CD alters the ability of the SAE-CD to stabilize the capsule shell against dissolution, erosion, swelling or degradation caused by water in the fill composition enclosed within the capsule shell. Banner's hydrophilic, HFB, and lipophilic, LFB, air fill size 35 oval gelatin capsules were used in this study, which was performed as described below. […] The SAE-CD was slowly added to the water while it was stirring and on a hot plate. Agitation continued until all the SAE-CD dissolved. The SAE-CD was divided by weighing in equal amounts into nine vials (one for each drug). […] The amount of drug added produced a composition that contained a normal dose of drug in 1 gram. The vials were agitated and heated until a solution was obtained or the active was uniformly suspended. […]
Method A: Half-Shell integrity Test (H.S.I.T.)
In a closed container, a portion of a capsule shell is exposed to an aqueous fill composition comprising a known amount of derivatized cyclodextrin, water and optionally one or more other excipients. Observation of changes, or lack thereof, on the exposed portion's size, appearance, shape, dissolution, erosion, degradation, hardness, and/or translucence are recorded periodically over time. A rating scale is used to quantify the overall performance of the capsule portion during the test.

[3] = as above; format: physicochemical; conditions: for content in fill composition for an HSIT rating of at least 3: PVP and water fill, lipophilic fill-grade CARDINAL SGC
Description: The same tests were performed on gelatin capsules obtained from CARDINAL HEALTH.

[4] = Water activity measurement; format: physicochemical; conditions: about 20-25° C.
Description: Without being held bound to a particular mechanism, it is believed that the increasing the concentration of derivatized cyclodextrin present in the aqueous fill composition results in reduced water activity for the fill composition. The table below provides a summary of water activity versus concentration of cyclodextrin derivatives or some shell-stabilizing materials in water at about 20-25° C., or ambient temperature.
The values detailed above are approximate and can vary from instrument to instrument. These values were determined according to the procedure described herein on a water activity meter described herein. The numbers can also vary within the standard deviation of a particular instrument. It is also possible for the numbers to vary according to the accuracy and reproducibility of the instrument used as well as the method for calibrating the instrument with solution standards of known water activity.
Water activity was measured by placing a sample solution in a small, sealed container and determining the equilibrium humidity and temperature in the container. Instruments such as the HygroLab 3 from Rotronic Instrument Corp. , Huntington, N.Y. were used to measure the water activity. The humidity is determined using a thin film capacitive sensor in the headspace of the container. The temperature is determined using a Pt RTD 100 sensor. From these measurements the activity of water (Aw) is calculated by the instrument. The instrument has an accuracy of about ±0.015 Aw and a repeatability of about ±0.005 Aw. Carefully prepared salt-containing stock solutions of known concentration and water activity were used to calibrate the instrument prior to use.

[5] = Hard shell capsule stability in aqueous SBE-CD solutions; format: physicochemical; conditions: hardcap
Description: Two types of hard shell capsules obtained from […] were evaluated. A conventional hard gelatin capsule (HCAP) and a hard HPMC (hydroxypropyl methylcellulose) capsule (VCAP) were evaluated under identical conditions using aqueous solutions differing in the concentration of SBE-CD (sulfobutyl ether cyclodextrin).

[6] = H.S.I.T. rating versus SBE concentration (FIG. 3); format: physicochemical
Text: FIG. 3 depicts a chart of the relationship between concentration of SBE cyclodextrin and H.S.I.T. (HALF-SHELL integrity test) rating for HGC (hard gelatin capsule From […]), HGS (hard gelatin capsule from SHIONOGI), HPC (hard hydroxypropyl methylcellulose shell from […]), and HPS (hard hydroxypropyl methylcellulose shell from SHIONOGI), and SSS (soft starch shell […]). The stability obtained was dependent upon the composition of the capsule gel.

[7] = Shell stability toward aqueous fill composition, statements on soft gelatin capsules; format: physicochemical; conditions: for stability provided to capsules: about ≧50% wt.
[8] = 40% wt. cyclodextrin derivative in water, HFB
[9] = 50% wt. cyclodextrin derivative in water, HFB
[10] = 55% wt. cyclodextrin derivative in water, HFB
[11] = 60% wt. cyclodextrin derivative in water, HFB
[12] = 40% wt. cyclodextrin derivative in water, LFB
[13] = 50% wt. cyclodextrin derivative in water, LFB
[14] = 55% wt. cyclodextrin derivative in water, LFB
[15] = 60% wt. cyclodextrin derivative in water, LFB
[16] = 40% wt. cyclodextrin derivative in water, LFC
[17] = 50% wt. cyclodextrin derivative in water, LFC
[18] = 55% wt. cyclodextrin derivative in water, LFC
[19] = 60% wt. cyclodextrin derivative in water, LFC

O [Water]
content in fill composition for a stabilized capsule formulation ([1]; SAE-CD, PEG and water fill, HFB): ≦48% | content in fill composition for an HSIT rating of at least 3 ([1]; SAE-CD): ≦54% | content in fill composition for a stabilized capsule formulation ([2]; SAE-CD, PEG and water fill, LFB): ≦50% | content in fill composition for an HSIT rating of at least 3 ([2]; SAE-CD): ≦54% | content in fill composition for a stabilized capsule formulation ([3]; SAE-CD, PEG and water fill, LFC): ≦48% | content in fill composition for an HSIT rating of at least 3 ([3]; SAE-CD): ≦49%

sulfobutyl ether cyclodextrin [SAE-CD]
Water Activity (approximate values) ([4]; 10 % w/w in water): ~0.98 | Water Activity (approximate values) ([4]; 20 % w/w in water): ~0.98 | Water Activity (approximate values) ([4]; 30 % w/w in water): ~0.97 | Water Activity (approximate values) ([4]; 40 % w/w in water): ~0.95 | Water Activity (approximate values) ([4]; 50 % w/w in water): ~0.91 | Water Activity (approximate values) ([4]; 55 % w/w in water): ~0.88 | Water Activity (approximate values) ([4]; 60 % w/w in water): ~0.86 | Water Activity (approximate values) ([4]; 70 % w/w in water): ~0.76 | content in fill composition for a stabilized capsule formulation [1]: ≧12% | Increase in shell size [1, 8]: 2× × original | Observations [1, 8]: shape intact | Time for failure [1, 8]: 3 days | Increase in shell size [1, 9]: 2.5 × original | Observations [1, 9]: Slightly | Time for failure [1, 9]: 16 days | Increase in shell size [1, 10]: 2 × original | Observations [1, 10]: Deformed | Time for failure [1, 10]: 10 days | Increase in shell size [1, 11]: no change | Observations [1, 11]: No change | Time for failure [1, 11]: ≧21 days | content in fill composition for an HSIT rating of at least 3 ([1]; SAE-CD): ≧6% | Observations ([5]; 30% SBE solution): deformed/bends | failure time ([5]; 30% SBE solution): 24 h | size ([5]; 30% SBE solution): 2 × × length | Observations ([5]; 40% SBE solution): deformed/closed | failure time ([5]; 40% SBE solution): 48 h | size ([5]; 40% SBE solution): >2 × × width | Observations ([5]; 50% SBE solution): deformed/closed | failure time ([5]; 50% SBE solution): 48 h | size ([5]; 50% SBE solution): 2 × × width | Observations ([5]; 60% SBE solution): closed/stuck | failure time ([5]; 60% SBE solution): 96 h | size ([5]; 60% SBE solution): 2 × × width | stability provided to capsules ([6]; SBE concentration of about ≧60% wt., hard gelatin capsules): at least a one-week stability | stability provided to capsules ([6]; hard hydroxypropyl methylcellulose capsules): at least a two-week stability | content in fill composition for a stabilized capsule formulation [2]: ≧18% | Increase in shell size [2, 12]: 2.5× × original | Observations [2, 12]: shape intact | Time for failure [2, 12]: 3 days | Increase in shell size [2, 13]: 2.5 × original | Observations [2, 13]: Deformed | Time for failure [2, 13]: 7 days | Increase in shell size [2, 14]: 2 × original | Observations [2, 14]: Deformed | Time for failure [2, 14]: 10 days | Increase in shell size [2, 15]: no change in length | Observations [2, 15]: Slight | Time for failure [2, 15]: ≧21 days | content in fill composition for an HSIT rating of at least 3 ([2]; SAE-CD): ≧6% | content in fill composition for a stabilized capsule formulation [3]: ≧18% | Increase in shell size [3, 16]: >3 × original | Observations [3, 16]: shape intact | Time for failure [3, 16]: 4 days | Increase in shell size [3, 17]: 2 × original | Observations [3, 17]: deformed | Time for failure [3, 17]: 7 days | Increase in shell size [3, 18]: Slightly enlarged | Observations [3, 18]: No deformities | Time for failure [3, 18]: ≧14 days | Increase in shell size [3, 19]: no change | Observations [3, 19]: no change | Time for failure [3, 19]: >21 days | content in fill composition for an HSIT rating of at least 3 ([3]; SAE-CD): ≧6% | shelf-life of soft gelatin capsules ([7]; 50% wt. or more based upon total weight of water and SAE-CD or of the fill composition): at least one week | stability provided to capsules ([7]; LFB and LFC soft gelatin capsules as printed, FIG. 2): at least a one week stability | stability provided to capsules ([7]; LFB and LFC soft gelatin capsules, FIG. 1): at least a one week stability | water activity of fill composition that forms a stable soft gelatin capsule formulation ([7]; fill composition comprising SBE-CD, PEG and water, FIG. 8): ≤ 0.90±0.02 | stability of shell toward fill composition ([7]; soft gelatin shells from BANNER PHARMACAPS, less than 40% by wt. SAE-CD): unstable | stability of shell toward fill composition ([7]; soft gelatin shells from BANNER PHARMACAPS, ≧50% wt. SAE-CD): stable for at least one week | stability of shell toward fill composition ([7]; soft gelatin shells from BANNER PHARMACAPS, ≧55% wt. SAE-CD): stable for at least ten days | stability of shell toward fill composition ([7]; soft gelatin shells from BANNER PHARMACAPS, ≧60% wt. SAE-CD): stable for at least three weeks | stability of shell toward fill composition ([7]; soft gelatin shells from CARDINAL HEALTH, less than 40% by wt. SAE-CD): unstable | stability of shell toward fill composition ([7]; soft gelatin shells from CARDINAL HEALTH, ≧50% wt. SAE-CD): stable for at least one week | stability of shell toward fill composition ([7]; soft gelatin shells from CARDINAL HEALTH, ≧55% wt. SAE-CD): stable for at least two weeks | time the capsules were stable ([7]; soft gelatin shells from CARDINAL HEALTH, ≧60% wt. SAE-CD): at least 21 days | water activity of fill composition that provides an increase in the stability of the shell ([7]; soft-gelatin capsule, the agent alone in water): less than 0.95
